Results: US7767659B2, “Synthesis of naturally occurring ecteinascidins and related compounds” (Pharma Mar, S.A., priority 2002, dated 2010)

What was measured:
[1] = test system: A-549; assay: cells; conditions: Homo sapiens, A549, 48 h; for GI50: read-out: A549 GI50; for CC50: read-out: A549 LC50; for IC (TGI): read-out: A549 TGI
Experimental: (§1) This form of the assay employs 96 well cell culture microplates of 9 mm diameter (Faircloth, 1988; Mosmann, 1983). Most of the cell lines are obtained from American Type Culture Collection (ATCC) derived from different human cancer types.
(§2) Cells are maintained in RPMI 1640 10% FBS, supplemented with 0.1 g/l penicillin and 0.1 g/l streptomycin sulfate and then incubated at 37° C., 5% CO2 and 98% humidity. For the experiments, cells were harvested from subconfluent cultures using trypsin and resuspended in fresh medium before plating.
(§3) Cells are seeded in 96 well microtiter plates, at 5×10^3 cells per well in aliquots of 195 μl medium, and they are allowed to attach to the plate surface by growing in drug free medium for 18 hours. Afterward, samples are added in aliquots of 5 μl in a ranging from 10 to 10^−8 μg/ml, dissolved in DMSO/EtOH/PBS (0.5:0.5:99). After 48 hours exposure, the antitumor effect are measured by the SRB methodology: cells are fixed by adding 50 μl of cold 50% (wt/vol) trichloroacetic acid (TCA) and incubating for 60 minutes at 4° C. Plates are washed with deionized water and dried. One hundred μl of SRB solution (0.4% wt/vol in 1% acetic acid) is added to each microtiter well and incubated for 10 minutes at room temperature. Unbound SRB is removed by washing with 1% acetic acid. Plates are air dried and bound stain is solubilzed with Tris buffer. Optical densities are read on a automated spectrophotometric plate reader at a single wavelength of 490 nm.
(§4) The values for mean +/− SD of data from triplicate wells are calculated. Some parameters for cellular responses can be calculated: GI=growth inhibition, TGI=total growth inhibition (cytostatic effect) and LC=cell killing (cytotoxic effect).

[2] = test system: HT-29; assay: cells; conditions: Homo sapiens, HT-29, 48 h; for GI50: read-out: HT29 GI50; for CC50: read-out: HT29 LC50; for IC (TGI): read-out: HT29 TGI
Experimental: as §1, §2, §3, §4

[3] = test system: LoVo; assay: cells; conditions: Homo sapiens, LoVo, 48 h; for GI50: read-out: LOVO GI50; for CC50: read-out: LOVO LC50; for IC (TGI): read-out: LOVO TGI
Experimental: as §1, §2, §3, §4

[4] = test system: DU-145; assay: Inhibition of cells growth by colorimetric assay (SRB); conditions: Homo sapiens, DU-145, 48 h; for GI50: read-out: DU145 GI50; for CC50: read-out: DU145 LC50; for IC (TGI): read-out: DU145 TGI
Experimental: as §1, §2, §3, §4

[5] = test system: HeLa-APL; assay: as above; conditions: Homo sapiens, 48 h; for GI50: read-out: HELA-APL GI50; for CC50: read-out: HELA-APL LC50; for IC (TGI): read-out: HELA-APL TGI
Experimental: as §1, §2, §3, §4

[6] = test system: HeLa; assay: as above; conditions: Homo sapiens, HeLa, 48 h; for GI50: read-out: HELA GI50; for CC50: read-out: HELA LC50; for IC (TGI): read-out: HELA TGI
Experimental: as §1, §2, §3, §4

[7] = test system: IGROV-1; assay: as above; conditions: Homo sapiens, IGROV-1, 48 h; for GI50: read-out: IGROV GI50; for CC50: read-out: IGROV LC50; for IC (TGI): read-out: IGROV TGI
Experimental: as §1, §2, §3, §4

[8] = test system: IGROV-ET; assay: as above; conditions: Homo sapiens, 48 h; for GI50: read-out: IGROV-ET GI50; for CC50: read-out: IGROV-ET LC50; for IC (TGI): read-out: IGROV-ET TGI
Experimental: as §1, §2, §3, §4

[9] = test system: K-562; assay: as above; conditions: Homo sapiens, K562, 48 h; for GI50: read-out: K562 GI50; for CC50: read-out: K562 LC50; for IC (TGI): read-out: K562 TGI
Experimental: as §1, §2, §3, §4

[10] = test system: LNCaP; assay: as above; conditions: Homo sapiens, LNCaP, 48 h; for GI50: read-out: LNCAP GI50; for CC50: read-out: LNCAP LC50; for IC (TGI): read-out: LNCAP TGI
Experimental: as §1, §2, §3, §4

[11] = test system: LoVo-Dox; assay: as above; conditions: Homo sapiens, 48 h; for GI50: read-out: LOVO-DOX GI50; for CC50: read-out: LOVO-DOX LC50; for IC (TGI): read-out: LOVO-DOX TGI
Experimental: as §1, §2, §3, §4

[12] = test system: PANC-1; assay: as above; conditions: Homo sapiens, PANC-1, 48 h; for GI50: read-out: PANC-1 GI50; for CC50: read-out: PANC-1 LC50; for IC (TGI): read-out: PANC-1 TGI
Experimental: as §1, §2, §3, §4

[13] = test system: SK-MEL-28; assay: as above; conditions: Homo sapiens, SK-MEL-28, 48 h; for GI50: read-out: MEL-28 GI50; for CC50: read-out: MEL-28 LC50; for IC (TGI): read-out: MEL-28 TGI
Experimental: as §1, §2, §3, §4

Structure (SMILES) | GI50 [1] | CC50 [1] | IC (TGI) [1] | GI50 [2] | CC50 [2] | IC (TGI) [2] | GI50 [3] | CC50 [3] | IC (TGI) [3] | GI50 [4] | CC50 [4] | IC (TGI) [4] | GI50 [5] | CC50 [5] | IC (TGI) [5] | GI50 [6] | CC50 [6] | IC (TGI) [6] | GI50 [7] | CC50 [7] | further results
C=CCN1[C@@H]2c3c(cc(C)c(OC)c3O)C[C@H]1[C@H](C#N)N1C2[C@@H]2SC[C@]3(NCCc4c3[nH]c3ccccc43)C(=O)OC[C@H]1c1c3c(c(C)c(OC(C)=O)c12)OCO3 (stereo partly drawn) [compound 55] | 68.4 nM | 1220 nM | 286 nM | 75.7 nM | 12700 nM | 1810 nM | 151 nM | 837 nM | 356 nM | 59 nM | 12700 nM | 247 nM | 111 nM | 915 nM | 323 nM | 148 nM | 887 nM | 363 nM | 69.2 nM | 1580 nM | IC (TGI) [7]: 271 nM; GI50 [8]: 248 nM; CC50 [8]: 4180 nM; IC (TGI) [8]: 624 nM; GI50 [9]: 58.4 nM; CC50 [9]: 1040 nM; IC (TGI) [9]: 272 nM; GI50 [10]: 17.1 nM; CC50 [10]: 75.7 nM; IC (TGI) [10]: 36 nM; GI50 [11]: 333 nM; CC50 [11]: 12700 nM; IC (TGI) [11]: 1570 nM; GI50 [12]: 148 nM; CC50 [12]: 12700 nM; IC (TGI) [12]: 1900 nM; GI50 [13]: 88.6 nM; CC50 [13]: 698 nM; IC (TGI) [13]: 265 nM
COc1c(C)cc2c(c1O)[C@H]1N[C@@H](C2)[C@H](C#N)N2C1[C@@H]1SC[C@]3(NCCc4c3[nH]c3ccccc43)C(=O)OC[C@H]2c2c3c(c(C)c(OC(C)=O)c21)OCO3 (stereo partly drawn) [compound 59] | 15.9 nM | 273 nM | 48.5 nM | 3.83 nM | 4280 nM | 16 nM | 5.8 nM | 1190 nM | 23.3 nM | 4.09 nM | 1640 nM | 10.2 nM | 3.32 nM | 59.2 nM | 7.69 nM | 2.44 nM | 10.6 nM | 5.08 nM | 3.01 nM | 110 nM | IC (TGI) [7]: 7.33 nM; GI50 [8]: 4.48 nM; CC50 [8]: 3040 nM; IC (TGI) [8]: 107 nM; GI50 [9]: 1.8 nM; CC50 [9]: 3290 nM; IC (TGI) [9]: 9.83 nM; GI50 [10]: 1.03 nM; CC50 [10]: 6.43 nM; IC (TGI) [10]: 2.67 nM; GI50 [11]: 123 nM; CC50 [11]: 3930 nM; IC (TGI) [11]: 709 nM; GI50 [12]: 4.76 nM; CC50 [12]: 3750 nM; IC (TGI) [12]: 42.3 nM; GI50 [13]: 3.56 nM; CC50 [13]: 3040 nM; IC (TGI) [13]: 11 nM
